Measured values reported in patent US6936585B2, “Corticotropin releasing factor 2 receptor agonists” (priority 2002, dated 2005).
Read-outs that look alike come from different tables or passages of the source. Ends that are not written are not given here. Peptide text beside a SMILES is read from it.

Tests used:
CRF2R = target: T1, CRF2R (Homo sapiens, UniProt Q13324); experiment: CRF2R agonist activation (EC50 / Emax), called comparative CRF binding; format: cell-based; settings: for EC50: read-out: CRF2R EC50
T1 sequence (Q13324 1-411): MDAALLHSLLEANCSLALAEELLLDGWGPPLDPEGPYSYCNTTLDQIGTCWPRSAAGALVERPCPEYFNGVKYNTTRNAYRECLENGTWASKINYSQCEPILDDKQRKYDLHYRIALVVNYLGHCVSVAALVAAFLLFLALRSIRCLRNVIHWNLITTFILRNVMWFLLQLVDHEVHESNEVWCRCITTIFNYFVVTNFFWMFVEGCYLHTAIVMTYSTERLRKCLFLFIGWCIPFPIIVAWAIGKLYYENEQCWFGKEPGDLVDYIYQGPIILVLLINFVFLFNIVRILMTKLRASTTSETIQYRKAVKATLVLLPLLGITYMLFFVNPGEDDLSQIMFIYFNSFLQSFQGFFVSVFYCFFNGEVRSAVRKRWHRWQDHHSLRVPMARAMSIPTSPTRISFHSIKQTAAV
In short: (§1)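 Read-out is Gαs-driven cAMP induction, quantified directly in lysates or through CRE-reporter gene expression, after treating CRF1R- or CRF2R-expressing cells with peptide. Vehicle-treated cells serve as the comparison.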

CRF1R = target: T2, CRF1R (Homo sapiens, UniProt P34998); experiment: CRF1R agonist activation (EC50 / Emax), called comparative CRF binding; format: cell-based; settings: for EC50: read-out: CRF1R EC50
T2 sequence (P34998 24-415): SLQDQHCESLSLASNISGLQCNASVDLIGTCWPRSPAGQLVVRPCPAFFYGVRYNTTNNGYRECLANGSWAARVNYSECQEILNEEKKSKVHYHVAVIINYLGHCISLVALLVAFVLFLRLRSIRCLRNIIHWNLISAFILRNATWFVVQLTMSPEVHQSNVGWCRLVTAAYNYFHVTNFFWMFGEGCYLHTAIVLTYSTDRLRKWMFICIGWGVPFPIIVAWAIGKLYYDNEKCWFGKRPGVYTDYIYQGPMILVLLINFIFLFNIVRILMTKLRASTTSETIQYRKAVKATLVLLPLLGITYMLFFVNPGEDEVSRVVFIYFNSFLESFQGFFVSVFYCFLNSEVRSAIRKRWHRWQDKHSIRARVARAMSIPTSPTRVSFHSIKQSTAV
In short: as §1

| Compound | Emax (CRF2R; read-out: CRF2R Emax) [%] | Emax (CRF1R; read-out: CRF1R Emax) [%] | EC50 (CRF2R) [µM] | EC50 (CRF1R) [µM] | Emax (CRF2R; Emax, read-out: CRF2R (Emax %)) [%] | Emax (CRF1R; Emax, read-out: CRF1R (Emax %)) [%] |
| --- | --- | --- | --- | --- | --- | --- |
| SEEPPISLDLTFHLLREVLEMARAEQLAQQAHTNARILARV-NH2 [compound 161] | 88 | 77 | – | – | – | – |
| CC[C@H](C)[C@H](N)C(=O)N[C@H](C(=O)N[C@@H](CC(C)C)C(=O)N[C@@H](CO)C(=O)N[C@@H](CC(C)C)C(=O)N[C@@H](CC(=O)O)C(=O)N[C@H](C(=O)N1CCC[C@H]1C(=O)N[C@H](C(=O)NCC(=O)N[C@@H](CC(C)C)C(=O)N[C@@H](CC(C)C)C(=O)N[C@@H](CCC(N)=O)C(=O)N[C@H](C(=O)N[C@@H](CC(C)C)C(=O)N[C@@H](CC(C)C)C(=O)N[C@@H](CCC(=O)O)C(=O)N[C@@H](CCC(N)=O)C(=O)N[C@@H](C)C(=O)N[C@@H](C)C(=O)N[C@@H](C)C(=O)N[C@@H](CCCNC(=N)N)C(=O)N[C@@H](CCC(=O)O)C(=O)N[C@@H](CCC(N)=O)C(=O)N[C@@H](C)C(=O)N[C@H](C(=O)N[C@H](C(=O)N[C@@H](CC(N)=O)C(=O)N[C@@H](C)C(=O)N[C@@H](CCCNC(=N)N)C(=O)N[C@H](C(=O)N[C@@H](CC(C)C)C(=O)N[C@@H](C)C(=O)N[C@@H](CCCNC(=N)N)C(=O)N[C@H](C(N)=O)C(C)C)[C@@H](C)CC)[C@@H](C)O)[C@@H](C)O)[C@@H](C)CC)[C@@H](C)CC)C(C)C)C(C)C [compound 139] (H-IVLSLDVPIGLLQILLEQAAAREQATTNARILARV-NH2; N-terminus assumed) | 60 | 4 | 0.0426 | > 0.1 | – | – |
| CC[C@H](C)[C@H](NC(=O)[C@H](CCCNC(=N)N)NC(=O)[C@H](C)NC(=O)[C@H](CC(N)=O)NC(=O)[C@H](CCC(N)=O)NC(=O)[C@H](CCC(=O)O)NC(=O)[C@H](C)NC(=O)[C@H](CCCNC(=N)N)NC(=O)[C@H](CCC(=O)O)NC(=O)[C@H](CCCNC(=N)N)NC(=O)[C@H](CCC(N)=O)NC(=O)[C@H](CO)NC(=O)[C@H](CCC(N)=O)NC(=O)[C@@H](NC(=O)[C@H](CCCCN)NC(=O)[C@H](CCC(=O)O)NC(=O)[C@H](CC(C)C)NC(=O)[C@H](CCC(=O)O)NC(=O)[C@H](CC(C)C)NC(=O)[C@H](CC(C)C)NC(=O)[C@@H](NC(=O)[C@H](CCCNC(=N)N)NC(=O)[C@H](CC(C)C)NC(=O)[C@H](CC(C)C)NC(=O)[C@H](Cc1ccccc1)NC(=O)[C@H](Cc1ccccc1)NC(=O)[C@@H]1CCCN1C(=O)[C@@H](NC(=O)[C@H](CC(=O)O)NC(=O)[C@@H](NC(=O)[C@H](CO)NC(=O)[C@H](CC(C)C)NC(=O)[C@H](CO)NC(=O)[C@@H]1CCCN1C(=O)[C@H](CC(N)=O)NC(=O)[C@@H](N)CC(=O)O)[C@@H](C)CC)C(C)C)[C@@H](C)O)[C@@H](C)O)C(=O)N[C@@H](Cc1ccccc1)C(=O)N[C@@H](C)C(=O)N[C@@H](CCCNC(=N)N)C(=O)N[C@H](C(N)=O)C(C)C [compound 386] (H-DNPSLSIDVPFFLLRTLLELEKTQSQRERAEQNARIFARV-NH2; N-terminus assumed) | 96 | 78.2 | 0.0087 | ≥ 1 | – | – |
| SQEPPISLDLPIHLLREVLEMTKADQLAQQAHSNRKLLDIA-NH2 [compound 94] | 6.15 | 7.3 | – | – | – | – |
| CC[C@H](C)[C@H](NC(=O)[C@H](C)NC(=O)[C@H](CC(N)=O)NC(=O)[C@H](CCC(N)=O)NC(=O)[C@H](CCC(=O)O)NC(=O)[C@H](C)NC(=O)[C@H](CCCNC(=N)N)NC(=O)[C@H](CCC(=O)O)NC(=O)[C@H](CCCNC(=N)N)NC(=O)[C@H](CCC(N)=O)NC(=O)[C@H](CO)NC(=O)[C@H](CCC(N)=O)NC(=O)[C@@H](NC(=O)[C@H](CCCNC(=N)N)NC(=O)[C@H](C)NC(=O)[C@H](CC(C)C)NC(=O)[C@H](CCC(=O)O)NC(=O)[C@H](CC(C)C)NC(=O)[C@H](CC(C)C)NC(=O)[C@@H](NC(=O)[C@H](CCCNC(=N)N)NC(=O)[C@H](CC(C)C)NC(=O)[C@H](CC(C)C)NC(=O)[C@H](Cc1ccc(O)cc1)NC(=O)[C@H](Cc1ccc(O)cc1)NC(=O)[C@@H]1CCCN1C(=O)[C@H](CC(C)C)NC(=O)[C@H](CC(=O)O)NC(=O)[C@@H](NC(=O)[C@H](CO)NC(=O)[C@H](CC(C)C)NC(=O)[C@H](CO)NC(=O)[C@@H]1CCCN1C(=O)[C@H](CC(N)=O)NC(=O)[C@@H](N)CC(=O)O)[C@@H](C)CC)[C@@H](C)O)[C@@H](C)O)C(=O)N[C@H](C(=O)N[C@@H](Cc1ccccc1)C(=O)N[C@@H](C)C(=O)N[C@@H](CO)C(=O)N[C@H](C(N)=O)C(C)C)[C@@H](C)CC [compound 263] (H-DNPSLSIDLPYYLLRTLLELARTQSQRERAEQNAIIFASV-NH2; N-terminus assumed) | 93 | 72 | – | – | – | – |
| CC[C@H](C)[C@H](N)C(=O)N[C@H](C(=O)N[C@@H](CC(C)C)C(=O)N[C@@H](CO)C(=O)N[C@@H](CC(C)C)C(=O)N[C@@H](CC(=O)O)C(=O)N[C@H](C(=O)N1CCC[C@H]1C(=O)N[C@H](C(=O)NCC(=O)N[C@@H](CC(C)C)C(=O)N[C@@H](CC(C)C)C(=O)N[C@@H](CCC(N)=O)C(=O)N[C@H](C(=O)N[C@@H](CC(C)C)C(=O)N[C@@H](CC(C)C)C(=O)N[C@@H](CCC(=O)O)C(=O)N[C@@H](CCC(N)=O)C(=O)N[C@H](C(=O)N[C@@H](CCCCN)C(=O)N[C@@H](C)C(=O)N[C@@H](CCCNC(=N)N)C(=O)N[C@@H](C)C(=O)N[C@@H](C)C(=O)N[C@@H](CCCNC(=N)N)C(=O)N[C@@H](CCC(=O)O)C(=O)N[C@@H](CCC(N)=O)C(=O)N[C@@H](C)C(=O)N[C@H](C(=O)N[C@H](C(=O)N[C@@H](CC(N)=O)C(=O)N[C@@H](C)C(=O)N[C@@H](CCCNC(=N)N)C(=O)N[C@H](C(=O)N[C@@H](CC(C)C)C(=O)N[C@@H](C)C(=O)N[C@@H](CCCNC(=N)N)C(=O)N[C@H](C(N)=O)C(C)C)[C@@H](C)CC)[C@@H](C)O)[C@@H](C)O)[C@@H](C)O)[C@@H](C)CC)[C@@H](C)CC)C(C)C)C(C)C [compound 117] (H-IVLSLDVPIGLLQILLEQTKARAAREQATTNARILARV-NH2) | 98.8 | 7.8 | – | – | – | – |
| CC[C@H](C)[C@H](NC(=O)[C@H](CCC(N)=O)NC(=O)[C@H](C)NC(=O)[C@H](CCSC)NC(=O)[C@H](CC(C)C)NC(=O)[C@H](Cc1c[nH]cn1)NC(=O)[C@H](C)NC(=O)[C@H](CC(N)=O)NC(=O)[C@H](C)NC(=O)[C@H](C)NC(=O)[C@H](C)NC(=O)[C@H](CCC(N)=O)NC(=O)[C@H](C)NC(=O)[C@H](CCCNC(=N)N)NC(=O)[C@H](CC(C)C)NC(=O)[C@H](CC(N)=O)NC(=O)[C@H](CCCCN)NC(=O)[C@H](C)NC(=O)[C@H](CCCCN)NC(=O)[C@H](C)NC(=O)[C@@H](NC(=O)[C@H](CC(N)=O)NC(=O)[C@H](Cc1ccccc1)NC(=O)[C@H](CC(C)C)NC(=O)[C@H](CC(C)C)NC(=O)[C@H](CC(N)=O)NC(=O)[C@H](CCSC)NC(=O)[C@@H](NC(=O)[C@H](CC(N)=O)NC(=O)[C@@H](NC(=O)[C@@H]1CCCN1C(=O)[C@@H](NC(=O)[C@H](CC(=O)O)NC(=O)[C@H](CC(C)C)NC(=O)[C@H](CO)NC(=O)[C@H](CC(C)C)NC(=O)[C@@H](NC(=O)[C@H](Cc1ccccc1)NC(=O)[C@H](CCCCN)NC(=O)[C@@H](N)[C@@H](C)O)[C@@H](C)O)C(C)C)[C@@H](C)O)[C@@H](C)CC)[C@@H](C)CC)C(N)=O [hUroIII, human urocortin III, reference compound] (H-TKFTLSLDVPTNIMNLLFNIAKAKNLRAQAAANAHLMAQI-NH2) | – | – | – | – | 60 | 10.2 |
| CC[C@H](C)[C@H](N)C(=O)N[C@H](C(=O)N[C@@H](CC(C)C)C(=O)N[C@@H](CO)C(=O)N[C@@H](CC(C)C)C(=O)N[C@@H](CC(=O)O)C(=O)N[C@H](C(=O)N1CCC[C@H]1C(=O)N[C@H](C(=O)NCC(=O)N[C@@H](CC(C)C)C(=O)N[C@@H](CC(C)C)C(=O)N[C@@H](CCC(N)=O)C(=O)N[C@H](C(=O)N[C@@H](CC(C)C)C(=O)N[C@@H](CC(C)C)C(=O)N[C@@H](CCC(=O)O)C(=O)N[C@@H](CCC(N)=O)C(=O)N[C@@H](CCCNC(=N)N)C(=O)N[C@@H](C)C(=O)N[C@@H](CCCNC(=N)N)C(=O)N[C@@H](C)C(=O)N[C@@H](C)C(=O)N[C@@H](CCCNC(=N)N)C(=O)N[C@@H](CCC(=O)O)C(=O)N[C@@H](CCC(N)=O)C(=O)N[C@@H](C)C(=O)N[C@H](C(=O)N[C@H](C(=O)N[C@@H](CC(N)=O)C(=O)N[C@@H](C)C(=O)N[C@@H](CCCNC(=N)N)C(=O)N[C@H](C(=O)N[C@@H](CC(C)C)C(=O)N[C@@H](C)C(=O)N[C@@H](CCCNC(=N)N)C(=O)N[C@H](C(N)=O)C(C)C)[C@@H](C)CC)[C@@H](C)O)[C@@H](C)O)[C@@H](C)CC)[C@@H](C)CC)C(C)C)C(C)C [compound 137] (H-IVLSLDVPIGLLQILLEQRARAAREQATTNARILARV-NH2; N-terminus assumed) | 100 | 4 | – | – | – | – |
